Test results: US20110177943A1, “Benzyl-Substituted Thiadiazolyloxyphenylamidinium Salts” (priority 2009, published 2011)
Where a name gives a salt, the structure may show the parent alone. Read-outs that look alike come from different tables or passages of the source. Marks after values point to notes of the source that are not given here.

What was measured:
[1] = logP by HPLC on reversed-phase columns (EEC directive 79/831 Annex V.A8); type: physicochemical; conditions: for chromatographic logP: [b] LC-MS determination in the acidic range at pH 2.7, 0.1% aqueous formic acid and acetonitrile, read-out: log p
Method: Calibration was carried out using unbranched alkan-2-ones (having from 3 to 16 carbon atoms) with known logP values (the logP values were determined by the retention times using linear interpolation between two successive alkanones).

Fusarium proliferatum = assay: Production of Fumonisin FB1 by Fusarium proliferatum; type: cell-based; conditions: 120 h, read-out: inhibition of fumonisin FB1 production
Method: Production of Fumonisin FB1 by Fusarium proliferatum
The compounds were tested in microtitre plates at 5 concentrations of from 0.08 μM to 50 μM in a fumonisin-inducing liquid medium (0.5 g of malt extract, 1 g of yeast extract, 1 g of bactopeptone, 20 g of fructose, 1 g of KH2PO4, 0.3 g of MgSO47 H2O, 0.3 g of KCl, 0.05 g of ZnSO47 H2O and 0.01 g of CuSO4×5 H2O per litre) with DMSO (0.5%). Inoculation was carried out using a concentrated spore suspension of Fusarium proliferatum at a final concentration of 2000 spores/ml.
The plate was incubated at 20° C. and high atmospheric humidity for 5 days.
At the beginning and after 5 days, the OD was measured at OD620 (repeated measurements: 3×3 measurements per well) to calculate the inhibition of growth.
After 5 days, a sample of the liquid medium was removed and diluted 1:1000 with 50% strength acetonitrile. The concentration of FB1 of the diluted samples was analysed by HPLC-MS/MS, and the measured values were used to calculate the inhibition of fumonisin FB1 production compared to an active compound-free control. […]

Phakopsora pachyrhizi = assay: Phakopsora Test (soya beans)/Protective; type: in vivo; conditions: protective, active compound concentration 100 ppm, evaluation 11 days after inoculation
Method: Phakopsora Test (soya beans)/Protective
One day after spraying, the plants are inoculated with an aqueous spore suspension of the soya bean rust pathogen (Phakopsora pachyrhizi). The plants are placed in a greenhouse at 20° C. and a rel. atmospheric humidity of 80%.
Evaluation is carried out 11 days after the inoculation.

Sphaerotheca fuliginea = conditions: cucumber, protective, active compound concentration 500 ppm, evaluation 7 days after inoculation
Method: Sphaerotheca Test (cucumber)/protective
1 day after the treatment, the plants are inoculated with a spore suspension of Sphaerotheca fuliginea. The plants are then placed in a greenhouse at a relative atmospheric humidity of 70% and a temperature of 23° C.
Evaluation is carried out 7 days after the inoculation.

CCN(C)C=Nc1cc(C)c(Oc2nc(Cc3ccc(Cl)cc3)ns2)cc1C.O=S(=O)(O)O [Example 1, N′-(4-{[3-(4-chlorobenzyl)-1,2,4-thiadiazol-5-yl]oxy}-2,5-dimethylphenyl)-N-ethyl-N-methylimidoformamidesulphate]
log p ([1]; pH 2.7): 1.88^[b]

Br.CCN(C)C=Nc1cc(C)c(Oc2nc(Cc3ccc(Cl)cc3)ns2)cc1C [Example 2, N′-(4-{[3-(4-chlorobenzyl)-1,2,4-thiadiazol-5-yl]oxy}-2,5-dimethylphenyl)-N-ethyl-N-methylimidoformamide hydrobromide]
chromatographic logP ([1]; reversed-phase HPLC column): 1.83 | inhibition at 50 µM (Fusarium proliferatum): > 80% | efficacy (Phakopsora pachyrhizi): ≥ 80%

CCN(C)C=Nc1cc(C)c(Oc2nc(Cc3ccc(Cl)cc3)ns2)cc1C [Example 3, N′-(4-{[3-(4-Chlorobenzyl)-1,2,4-thiadiazol-5-yl]oxy}-2,5-dimethylphenyl)-N-ethyl-N-methylimidoformamide hydrochloride (1:1)]
chromatographic logP [1]: 2.03

N′-(4-{[3-(4-chlorobenzyl)-1,2,4-thiadiazol-5-yl]oxy}-2,5-dimethylphenyl)-N-ethyl-N-methylimido-formamide-1,2-benzothiazol-3(2H)-one 1,1-dioxide [Example 4]
efficacy (Sphaerotheca fuliginea): ≥ 70%
